Data on 47 compounds can be found in patent publication US10851098B2, “Azole amides and amines as alpha v integrin inhibitors” (BRISTOL-MYERS SQUIBB COMPANY, priority 2016, dated 2020).

What is called pIC50 is the negative decadic logarithm of the IC50, by convention in mol/L. A high value points to a small IC50.

pIC50: −log10 of the molar value.

T1 sequence (P06756 31-992 limits assumed): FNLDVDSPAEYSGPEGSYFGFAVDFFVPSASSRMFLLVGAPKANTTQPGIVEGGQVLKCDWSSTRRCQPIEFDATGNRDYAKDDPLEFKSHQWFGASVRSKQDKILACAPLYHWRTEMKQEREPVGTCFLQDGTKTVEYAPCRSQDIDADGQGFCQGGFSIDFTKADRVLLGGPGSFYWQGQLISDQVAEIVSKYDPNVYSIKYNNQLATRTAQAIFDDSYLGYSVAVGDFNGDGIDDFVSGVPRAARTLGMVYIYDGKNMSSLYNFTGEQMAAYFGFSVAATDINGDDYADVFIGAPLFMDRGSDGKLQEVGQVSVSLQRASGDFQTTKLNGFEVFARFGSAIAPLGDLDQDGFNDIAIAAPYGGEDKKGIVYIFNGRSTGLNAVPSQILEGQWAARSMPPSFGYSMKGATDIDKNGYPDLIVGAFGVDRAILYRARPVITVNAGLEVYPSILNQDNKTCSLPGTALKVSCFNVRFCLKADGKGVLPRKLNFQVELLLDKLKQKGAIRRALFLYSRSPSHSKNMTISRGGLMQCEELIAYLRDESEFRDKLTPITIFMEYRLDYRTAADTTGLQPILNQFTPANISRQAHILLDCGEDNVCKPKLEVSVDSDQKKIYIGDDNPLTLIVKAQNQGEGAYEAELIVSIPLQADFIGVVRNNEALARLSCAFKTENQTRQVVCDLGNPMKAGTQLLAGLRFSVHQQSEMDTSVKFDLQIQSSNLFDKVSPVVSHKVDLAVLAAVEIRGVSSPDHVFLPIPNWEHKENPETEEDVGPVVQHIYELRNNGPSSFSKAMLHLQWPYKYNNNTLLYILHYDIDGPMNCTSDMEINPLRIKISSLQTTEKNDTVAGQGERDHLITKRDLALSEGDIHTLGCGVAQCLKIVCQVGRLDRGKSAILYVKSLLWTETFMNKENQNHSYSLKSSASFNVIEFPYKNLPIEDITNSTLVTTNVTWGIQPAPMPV
T1 sequence (P18564 22-707 limits assumed): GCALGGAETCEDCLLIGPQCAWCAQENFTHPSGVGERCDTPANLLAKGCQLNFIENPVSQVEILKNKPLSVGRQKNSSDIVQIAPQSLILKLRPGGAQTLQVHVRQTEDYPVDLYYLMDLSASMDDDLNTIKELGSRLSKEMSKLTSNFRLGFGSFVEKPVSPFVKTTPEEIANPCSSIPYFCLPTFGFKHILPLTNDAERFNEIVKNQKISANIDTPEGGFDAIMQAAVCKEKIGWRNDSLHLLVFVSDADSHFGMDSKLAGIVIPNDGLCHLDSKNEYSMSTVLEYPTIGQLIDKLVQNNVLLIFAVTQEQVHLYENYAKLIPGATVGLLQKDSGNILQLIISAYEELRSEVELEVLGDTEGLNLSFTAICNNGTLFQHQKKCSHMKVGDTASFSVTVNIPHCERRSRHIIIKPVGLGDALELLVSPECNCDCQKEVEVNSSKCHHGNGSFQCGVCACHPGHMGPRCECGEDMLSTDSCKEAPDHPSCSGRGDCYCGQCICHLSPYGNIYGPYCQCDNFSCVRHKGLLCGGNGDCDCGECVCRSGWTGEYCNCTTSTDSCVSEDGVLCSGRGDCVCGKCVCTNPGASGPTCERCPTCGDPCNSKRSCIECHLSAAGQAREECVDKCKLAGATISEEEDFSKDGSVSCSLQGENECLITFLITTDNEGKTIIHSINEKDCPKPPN

The experiment concerns the target T1, human αVβ6 (Homo sapiens, UniProt P06756+P18564).
T1 construct: purchased R & D systems 3817-AV
The experiment is described as follows: human αVβ6 HTRF binding assay. The procedure: All binding assays used the HTRF (homogeneous time resolved fluorescence) technology from Cisbio International, therefore all assays are described as HTRF binding assays. The assay results for the Examples are listed above together with the characterization data. The HTRF binding assays are established for the following integrins: human αVβ6, human αVβ1, human αVβ3, human αVβ5, and human αVβ8. All assays used the following assay buffer: 20 mM Tris, pH 7.4, 1 mM MgCl2, 1 mM MnCl2, 0.01% Tween 20, and 0.01% BSA. Alternatively, a SPA-based assay was used for evaluation of receptor binding.
[…]
A general note: In TR-FRET formats the signal depends on donor and acceptor labels being close together.
On to `COC(=O)C[C@H](NC(=O)c1cnn(CCc2ccc3c(n2)NCCC3)c1)c1cc(Br)cc(C(C)(C)C)c1` [Example 96], for which the negative-log IC50 (pIC50) was 5.96.
As to `O=C(O)C[C@H](NC(=O)c1cnn(Cc2ccc3c(n2)NCCC3)c1)c1cc(Cl)cc(Cl)c1` [Example 97], the pIC50 is 5.93. This pIC50 and that of the compound before are within 0.2 log units of each other.
Next, `CC(C)(C)c1cc(Br)cc([C@H](CC(=O)O)NC(=O)c2cnn(Cc3ccc4c(n3)NCCC4)c2)c1` [Example 98]: 5.85; `O=C(O)CC(Cc1ccccc1)NC(=O)c1cnn(CCc2ccc3c(n2)NCCC3)c1` (centres unmarked) [Example 99]: 5.85; `Cc1nc2c(cc1Cn1cc(C(=O)NC(CC(=O)O)c3cc(Cl)cc(Cl)c3)c(C)n1)CCCN2` (centres unmarked) [Example 100]: 5.84.
The same measure for `CCOC(=O)C[C@H](NC(=O)c1cnn(CCc2ccc3c(n2)NCCC3)c1)c1cc(Cl)cc(Cl)c1` [Example 101]: 5.83; for `COc1ccc([C@H](CC(=O)O)NC(=O)c2cnn(Cc3ccc4c(n3)NCCC4)c2)cn1` [Example 102]: 5.70; for `O=C(O)CC(NC(=O)c1cnn(CCc2ccc3c(n2)NCCC3)c1CO)c1ccccc1Cl` (centres unmarked) [Example 103]: 5.59.
The same measure for `CCN(C(=O)c1cnn(CCc2ccc3c(n2)NCCC3)c1)C(CC(C)=O)c1cc(Cl)cc(Cl)c1` (centres unmarked) [Example 104]: 5.42.
In the case of `Cc1nc2c(cc1Cn1cc(C(=O)NC(CC(=O)O)c3cc(Cl)cc(Cl)c3)c(CO)n1)CCCN2` (centres unmarked) [Example 105], the pIC50 is 5.41. The pIC50 values of the last two compounds are within 0.2 log units of each other.
Next, `CCOC(=O)C[C@H](NC(=O)c1cnn(CCc2ccc3c(n2)NCCC3)c1)c1cc(Br)cc(C(C)(C)C)c1` [Example 106]: 5.37; `Cc1nc2c(cc1CCn1ncc(C(=O)NC(CC(=O)O)c3cc(Cl)cc(Cl)c3)c1CO)CCCN2` (centres unmarked) [Example 107]: 5.30.
Next, `Cc1nc2c(cc1CCn1ncc(C(=O)NC(CC(=O)O)c3cc(Cl)cc(Cl)c3)c1COC(C)(C)C)CCCN2` (centres unmarked) [Example 108]: 5.30; `O=C(O)CC1(NC(=O)c2cnn(CCc3ccc4c(n3)NCCC4)c2)Cc2ccccc2C1` [Example 109]: 5.19; `Cc1cc(C)c(S(=O)(=O)N[C@@H](CNC(=O)c2ccnn2CCc2ccc3c(n2)NCCC3)C(=O)O)c(C)c1` [Example 115]: 7.47.
The same measure for `O=C(O)C[C@H](NC(=O)c1cn(CCc2ccc3c(n2)NCCC3)cn1)c1cc(Cl)cc(Cl)c1` [Example 116]: 6.99; for `CCOC(=O)[C@H](CNC(=O)c1cn(CCc2ccc3c(n2)NCCC3)cn1)NS(=O)(=O)c1c(C)cc(C)cc1C` [Example 117]: 6.89.
Regarding `Cc1cc(C)c(S(=O)(=O)N[C@@H](CNC(=O)c2cnn(Cc3cc4c(nc3C)NCCC4)n2)C(=O)O)c(C)c1` [Example 118], the negative-log IC50 (pIC50) was 6.65.
For the compound `O=C(O)C[C@H](NC(=O)c1ncn(CCc2ccc3c(n2)NCCC3)n1)c1cc(Cl)cc(Cl)c1` [Example 120], the pIC50 was 7.01.
The same measure for `Cc1cc(C)c(S(=O)(=O)N[C@@H](CNC(=O)c2ccn(Cc3cc4c(nc3C)NCCC4)c2)C(=O)O)c(C)c1` [Example 122]: 7.37.
`CCCCS(=O)(=O)N[C@@H](CNC(=O)c1cnn(CCc2ccc3c(n2)NCCC3)c1)C(=O)O` [Example 124] gave a pIC50 of 8.59. Against the preceding compound, the pIC50 is 1.22 log units higher.
Next, `O=C(NC[C@H](NS(=O)(=O)Cc1ccccc1)C(=O)O)c1cnn(CCc2ccc3c(n2)NCCC3)c1` [Example 125]: 7.85; `CCS(=O)(=O)N[C@@H](CNC(=O)c1cnn(CCc2ccc3c(n2)NCCC3)c1)C(=O)O` [Example 126]: 8.00.
The same measure for `CCCOC(=O)N[C@@H](CNC(=O)c1cnn(CCc2ccc3c(n2)NCCC3)c1)C(=O)O` [Example 127]: 8.82; for `O=C(NC[C@H](NS(=O)(=O)Cc1ccccc1C(F)(F)F)C(=O)O)c1cnn(CCc2ccc3c(n2)NCCC3)c1` [Example 128]: 8.60; for `O=C(NC[C@H](NS(=O)(=O)CCC(F)(F)F)C(=O)O)c1cnn(CCc2ccc3c(n2)NCCC3)c1` [Example 129]: 8.52.
Next, `COC(=O)N[C@@H](CNC(=O)c1cnn(CCc2ccc3c(n2)NCCC3)c1)C(=O)O` [Example 130]: 7.89; `CC(C)COC(=O)N[C@@H](CNC(=O)c1cnn(CCc2ccc3c(n2)NCCC3)c1)C(=O)O` [Example 131]: 9.05; `CCOC(=O)N[C@@H](CNC(=O)c1cnn(CCc2ccc3c(n2)NCCC3)c1)C(=O)O` [Example 132]: 8.64.
`C=CCOC(=O)N[C@@H](CNC(=O)c1cnn(CCc2ccc3c(n2)NCCC3)c1)C(=O)O` [Example 133] gave a pIC50 of 8.59.
For the compound `CCCCCOC(=O)N[C@@H](CNC(=O)c1cnn(CCc2ccc3c(n2)NCCC3)c1)C(=O)O` [Example 134], the negative-log IC50 (pIC50) was 9.10.
Regarding `C=CCCOC(=O)N[C@@H](CNC(=O)c1cnn(CCc2ccc3c(n2)NCCC3)c1)C(=O)O` [Example 135], the pIC50 is 8.85.
The same measure for `C#CCOC(=O)N[C@@H](CNC(=O)c1cnn(CCc2ccc3c(n2)NCCC3)c1)C(=O)O` [Example 136]: 8.70; for `CC(C)(C)COC(=O)N[C@@H](CNC(=O)c1cnn(CCc2ccc3c(n2)NCCC3)c1)C(=O)O` [Example 137]: 9.10; for `CCCS(=O)(=O)N[C@@H](CNC(=O)c1cnn(CCc2ccc3c(n2)NCCC3)c1)C(=O)O` [Example 138]: 8.39.
The same measure for `O=C(NC[C@H](NS(=O)(=O)CCc1cccc2ccccc12)C(=O)O)c1cnn(CCc2ccc3c(n2)NCCC3)c1` [Example 139]: 9.05.
The same measure for `O=C(NC[C@H](NS(=O)(=O)Cc1cc(Cl)cc(Cl)c1)C(=O)O)c1cnn(CCc2ccc3c(n2)NCCC3)c1` [Example 140]: 8.21; for `O=C(NC[C@H](NS(=O)(=O)Cc1ccc(Cl)c(Cl)c1)C(=O)O)c1cnn(CCc2ccc3c(n2)NCCC3)c1` [Example 141]: 8.44.
In turn, `O=C(NC[C@H](NS(=O)(=O)Cc1cccc(F)c1)C(=O)O)c1cnn(CCc2ccc3c(n2)NCCC3)c1` [Example 142] showed a negative logarithm of the IC50 (pIC50) of 8.09. This pIC50 lies 0.35 log units lower than the previous one.
The same measure for `Cc1cccc(CS(=O)(=O)N[C@@H](CNC(=O)c2cnn(CCc3ccc4c(n3)NCCC4)c2)C(=O)O)c1` [Example 143]: 7.96; for `CCCCCS(=O)(=O)N[C@@H](CNC(=O)c1cnn(CCc2ccc3c(n2)NCCC3)c1)C(=O)O` [Example 144]: 8.68.
The same measure for `CC(C)CS(=O)(=O)N[C@@H](CNC(=O)c1cnn(CCc2ccc3c(n2)NCCC3)c1)C(=O)O` [Example 145]: 8.41.
For the compound `O=C(NC[C@H](NS(=O)(=O)Cc1ccc(OC(F)(F)F)cc1)C(=O)O)c1cnn(CCc2ccc3c(n2)NCCC3)c1` [Example 146], the pIC50 was 8.07.
On to `COCCS(=O)(=O)N[C@@H](CNC(=O)c1cnn(CCc2ccc3c(n2)NCCC3)c1)C(=O)O` [Example 147], for which the pIC50 is 7.85. This pIC50 is 0.22 log units lower than that of the compound before.
The same measure for `CCOCCS(=O)(=O)N[C@@H](CNC(=O)c1cnn(CCc2ccc3c(n2)NCCC3)c1)C(=O)O` [Example 148]: 8.05.
The same measure for `COCCOC(=O)N[C@@H](CNC(=O)c1cnn(CCc2ccc3c(n2)NCCC3)c1)C(=O)O` [Example 149]: 8.33; for `O=C(NC[C@H](NS(=O)(=O)Cc1ccc(C(F)(F)F)cc1)C(=O)O)c1cnn(CCc2ccc3c(n2)NCCC3)c1` [Example 150]: 8.24.
